#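 Tested at 5 concentrations; 48 h exposure; 96-well plates; endpoints linearly interpolated, else capped at highest concentration. At the GI50, growth is halved. TGI marks complete inhibition of growth.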
# Experiments:
# Test in all cases: NCI anticancer screen, dose series, 48 h
# OVCAR-5 ovarian = system: OVCAR-5 ovarian
# UACC-257 melanoma = system: UACC-257 melanoma
# ACHN renal = system: ACHN renal
# HOP-62 NSCLC = system: HOP-62 NSCLC
# HCT-116 colon = system: HCT-116 colon
# PC-3 prostate = system: PC-3 prostate
# A549 NSCLC = system: A549 NSCLC
# HCT-15 colon = system: HCT-15 colon
# NCI-H226 lung = system: NCI-H226 lung
# OVCAR-3 ovarian = system: OVCAR-3 ovarian
# SNB-75 CNS = system: SNB-75 CNS
# MCF7 breast = system: MCF7 breast
# UO-31 renal = system: UO-31 renal
# SN12C renal = system: SN12C renal
# SW-620 colon = system: SW-620 colon
# NCI-H460 lung = system: NCI-H460 lung
# NCI/ADR-RES ovarian = system: NCI/ADR-RES ovarian
# HL-60(TB) leukemia = system: HL-60(TB) leukemia
# SF-268 CNS = system: SF-268 CNS
# IGROV1 ovarian = system: IGROV1 ovarian
# RXF 393 renal = system: RXF 393 renal
# SK-MEL-5 melanoma = system: SK-MEL-5 melanoma
# MDA-MB-231 breast = system: MDA-MB-231 breast
# BT-549 breast = system: BT-549 breast
# M14 melanoma = system: M14 melanoma
# K-562 leukemia = system: K-562 leukemia
# SF-539 CNS = system: SF-539 CNS
# TK-10 renal = system: TK-10 renal
# OVCAR-4 ovarian = system: OVCAR-4 ovarian
# U251 CNS = system: U251 CNS
# HOP-92 NSCLC = system: HOP-92 NSCLC
# OVCAR-8 ovarian = system: OVCAR-8 ovarian
# MDA-MB-435 = system: MDA-MB-435
# MOLT-4 leukemia = system: MOLT-4 leukemia
# DU-145 prostate = system: DU-145 prostate
# NCI-H522 lung = system: NCI-H522 lung
# SNB-19 CNS = system: SNB-19 CNS
# KM12 colon = system: KM12 colon
# SK-MEL-28 melanoma = system: SK-MEL-28 melanoma
# MALME-3M melanoma = system: MALME-3M melanoma
# HT29 colon = system: HT29 colon
# NCI-H23 lung = system: NCI-H23 lung
# SF-295 CNS = system: SF-295 CNS
# UACC-62 melanoma = system: UACC-62 melanoma
# SK-OV-3 ovarian = system: SK-OV-3 ovarian
# RPMI-8226 leukemia = system: RPMI-8226 leukemia
# EKVX NSCLC = system: EKVX NSCLC
# LOX IMVI melanoma = system: LOX IMVI melanoma
# T-47D breast = system: T-47D breast
# HS 578T breast = system: HS 578T breast
# CCRF-CEM leukemia = system: CCRF-CEM leukemia
# CAKI-1 renal = system: CAKI-1 renal
# HCC-2998 colon = system: HCC-2998 colon
# SK-MEL-2 melanoma = system: SK-MEL-2 melanoma
# A498 renal = system: A498 renal
smiles,measurement,setting,value
COc1ccccc1CNCCCN1C(=O)c2ccc3c4c(ccc(c24)C1=O)C(=O)N(CCCNCCNCCCN)C3=O,GI50,OVCAR-5 ovarian,5.24 µM
same,TGI,OVCAR-5 ovarian,19.8 µM
same,GI50,UACC-257 melanoma,2530 nM
same,TGI,UACC-257 melanoma,7.96 µM
same,GI50,ACHN renal,4.45 µM
same,TGI,ACHN renal,79.8 µM
same,GI50,HOP-62 NSCLC,2460 nM
same,TGI,HOP-62 NSCLC,14.2 µM
same,GI50,HCT-116 colon,717 nM
same,TGI,HCT-116 colon,3.04 µM
same,GI50,PC-3 prostate,5.91 µM
same,TGI,PC-3 prostate,80.2 µM
same,GI50,A549 NSCLC,3.01 µM
same,TGI,A549 NSCLC,13.1 µM
same,GI50,HCT-15 colon,12.2 µM
same,TGI,HCT-15 colon,26.8 µM
same,GI50,NCI-H226 lung,2990 nM
same,TGI,NCI-H226 lung,21.3 µM
same,GI50,OVCAR-3 ovarian,2160 nM
same,TGI,OVCAR-3 ovarian,5.65 µM
same,GI50,SNB-75 CNS,3.07 µM
same,TGI,SNB-75 CNS,14.8 µM
same,GI50,MCF7 breast,422 nM
same,TGI,MCF7 breast,2220 nM
same,GI50,UO-31 renal,10.8 µM
same,TGI,UO-31 renal,84.5 µM
same,GI50,SN12C renal,2090 nM
same,TGI,SN12C renal,8.07 µM
same,GI50,SW-620 colon,1740 nM
same,TGI,SW-620 colon,8.91 µM
same,GI50,NCI-H460 lung,2080 nM
same,TGI,NCI-H460 lung,6.47 µM
same,GI50,NCI/ADR-RES ovarian,23.1 µM
same,TGI,NCI/ADR-RES ovarian,> 100 µM
same,GI50,HL-60(TB) leukemia,2540 nM
same,TGI,HL-60(TB) leukemia,6.34 µM
same,GI50,SF-268 CNS,2130 nM
same,TGI,SF-268 CNS,11.6 µM
same,GI50,IGROV1 ovarian,3.69 µM
same,TGI,IGROV1 ovarian,15.9 µM
same,GI50,RXF 393 renal,1650 nM
same,TGI,RXF 393 renal,7.12 µM
same,GI50,SK-MEL-5 melanoma,1570 nM
same,TGI,SK-MEL-5 melanoma,3.02 µM
same,GI50,MDA-MB-231 breast,2090 nM
same,TGI,MDA-MB-231 breast,> 100 µM
same,GI50,BT-549 breast,2580 nM
same,TGI,BT-549 breast,6.43 µM
same,GI50,M14 melanoma,2070 nM
same,TGI,M14 melanoma,4.49 µM
same,GI50,K-562 leukemia,3.24 µM
same,TGI,K-562 leukemia,16.7 µM
same,GI50,SF-539 CNS,2880 nM
same,TGI,SF-539 CNS,9.58 µM
same,GI50,TK-10 renal,6.65 µM
same,TGI,TK-10 renal,44.7 µM
same,GI50,OVCAR-4 ovarian,466 nM
same,TGI,OVCAR-4 ovarian,1680 nM
same,GI50,U251 CNS,1170 nM
same,TGI,U251 CNS,10.1 µM
same,GI50,HOP-92 NSCLC,6.7 µM
same,TGI,HOP-92 NSCLC,38.8 µM
same,GI50,OVCAR-8 ovarian,2080 nM
same,TGI,OVCAR-8 ovarian,11.7 µM
same,GI50,MDA-MB-435,2070 nM
same,TGI,MDA-MB-435,4.94 µM
same,GI50,MOLT-4 leukemia,1730 nM
same,TGI,MOLT-4 leukemia,5.81 µM
same,GI50,DU-145 prostate,3.65 µM
same,TGI,DU-145 prostate,12.5 µM
same,GI50,NCI-H522 lung,1220 nM
same,TGI,NCI-H522 lung,3.71 µM
same,GI50,SNB-19 CNS,2180 nM
same,TGI,SNB-19 CNS,11.8 µM
same,GI50,KM12 colon,3.25 µM
same,TGI,KM12 colon,11.4 µM
same,GI50,SK-MEL-28 melanoma,3.03 µM
same,TGI,SK-MEL-28 melanoma,9.66 µM
same,GI50,MALME-3M melanoma,1610 nM
same,TGI,MALME-3M melanoma,3.2 µM
same,GI50,HT29 colon,2070 nM
same,TGI,HT29 colon,11 µM
same,GI50,NCI-H23 lung,1720 nM
same,TGI,NCI-H23 lung,5.59 µM
same,GI50,SF-295 CNS,2770 nM
same,TGI,SF-295 CNS,12.6 µM
same,GI50,UACC-62 melanoma,1680 nM
same,TGI,UACC-62 melanoma,3.82 µM
same,GI50,SK-OV-3 ovarian,4.04 µM
same,TGI,SK-OV-3 ovarian,26.3 µM
same,GI50,RPMI-8226 leukemia,10.9 µM
same,TGI,RPMI-8226 leukemia,> 100 µM
same,GI50,EKVX NSCLC,4.17 µM
same,TGI,EKVX NSCLC,16.3 µM
same,GI50,LOX IMVI melanoma,2100 nM
same,TGI,LOX IMVI melanoma,10.4 µM
same,GI50,T-47D breast,1510 nM
same,TGI,T-47D breast,4.99 µM
same,GI50,HS 578T breast,5.51 µM
same,TGI,HS 578T breast,42.9 µM
same,GI50,CCRF-CEM leukemia,3.17 µM
same,TGI,CCRF-CEM leukemia,56.8 µM
same,GI50,CAKI-1 renal,21.7 µM
same,TGI,CAKI-1 renal,> 100 µM
same,GI50,HCC-2998 colon,2250 nM
same,TGI,HCC-2998 colon,10.3 µM
same,GI50,SK-MEL-2 melanoma,2670 nM
same,TGI,SK-MEL-2 melanoma,6.49 µM
same,GI50,A498 renal,5.01 µM
same,TGI,A498 renal,20.1 µM

# Reference: PubChem BioAssay (NCI)
